target: T1, Human TRPC6 (Homo sapiens, UniProt Q9Y210); assay: Evaluation of TRPC6 channel inhibitory activity (2), HEK293 cells with stably introduced human TRPC6, OAG stimulation, FLIPR tetra (Compound Nos. 1293 to 1405); type: cell-based; conditions: HEK293 cells with stably introduced human TRPC6, OAG 50 μM/0.5% DMSO, read-out: Inhibitory activity (pIC50 class) (converted)
T1 construct: expressed in transfected cells
T1 sequence (Q9Y210 1-931): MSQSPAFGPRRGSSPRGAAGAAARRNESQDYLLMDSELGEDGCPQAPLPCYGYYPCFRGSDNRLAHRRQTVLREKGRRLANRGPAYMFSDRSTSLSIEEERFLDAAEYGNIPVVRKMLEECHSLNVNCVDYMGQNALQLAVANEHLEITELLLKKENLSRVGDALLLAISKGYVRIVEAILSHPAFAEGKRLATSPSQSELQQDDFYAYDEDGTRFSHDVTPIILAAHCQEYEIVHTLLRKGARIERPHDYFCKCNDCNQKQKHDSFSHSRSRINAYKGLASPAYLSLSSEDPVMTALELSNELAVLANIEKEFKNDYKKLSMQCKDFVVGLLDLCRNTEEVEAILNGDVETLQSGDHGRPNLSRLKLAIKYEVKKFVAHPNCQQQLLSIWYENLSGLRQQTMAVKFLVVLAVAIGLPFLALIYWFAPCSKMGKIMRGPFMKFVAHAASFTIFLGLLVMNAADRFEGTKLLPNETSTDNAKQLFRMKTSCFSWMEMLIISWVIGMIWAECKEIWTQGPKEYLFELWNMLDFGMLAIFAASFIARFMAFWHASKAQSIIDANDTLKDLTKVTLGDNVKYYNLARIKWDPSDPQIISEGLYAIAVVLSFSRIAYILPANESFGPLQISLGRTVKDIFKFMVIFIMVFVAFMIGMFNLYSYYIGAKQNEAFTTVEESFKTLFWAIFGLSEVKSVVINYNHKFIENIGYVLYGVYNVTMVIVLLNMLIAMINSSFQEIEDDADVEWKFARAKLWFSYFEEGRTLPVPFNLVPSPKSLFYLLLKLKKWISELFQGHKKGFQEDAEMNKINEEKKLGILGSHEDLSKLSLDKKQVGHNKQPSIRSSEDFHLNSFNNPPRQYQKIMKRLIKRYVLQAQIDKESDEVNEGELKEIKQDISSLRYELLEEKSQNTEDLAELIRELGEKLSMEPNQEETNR
Procedure: Evaluation of TRPC6 Channel Inhibitory Activity (2) (Compound Nos. 1293 to 1405)
The activity of the TRPC6 inhibitor was measured by stimulating HEK293 cells, in which human TRPC6 was stably introduced, with OAG (1-Oleoyl-2-acetyl-sn-glycerol, Miliipore Sigma, 06754), using the FLIPR tetra system. The cells were proliferated in a humid environment at 37° C. 5% CO2 using a growth medium (DMEM (Dulbecco's Modified Eagle's Medium) high glucose containing 10% fetal bovine serum, 1×PSGlu (penicillin-streptomycin glutamine), 1×NEAA (Non-essential amino acid), sodium pyruvate and 200 μg/mL hyglomycin. For cell subculture, the cells were proliferated to 70-90% confluence, and gently washed twice with PBS (phosphate-buffered saline) free of calcium and magnesium after removing the medium. Then, the cells were incubated at 37° C. for 5 minutes after adding trypsin (3 mL), peeled off by tapping the flask at the base of the hand, 7 mL of growth medium was added to inactivate trypsin, and then the cells were resuspended. Usually, the cells were separated every 2-3 days to become a cell density of ⅕. The day before evaluation, the cells were seeded in a poly-D-lysine (PDL) coated 384-well plate using a multi-channel pipette or multidrop at a cell density of 1.0-1.5×10^4 cells/25 μL/well. After culturing overnight in a PDL-coated 384 Blackwell plate, a fluorescent dye buffer was added first to the cells and the cells were cultured at room temperature for 90-120 minutes. For preparing 10 mL of fluorescent dye buffer, 9 mL of assay buffer, 1 mL of 10×PBX signal enhancer, and 10 μL of calcium indicator were mixed. Cells treated with the compounds of each level 25 minutes before the stimulation with OAG of TRPC6 agonist were incubated. OAG solution was prepared by adding OAG to assay buffer (Ca ringer solution base: 10 mM HEPES (4-(2-hydroxyethyl)-1-piperazine-ethanesulfonic acid), 4 mM MgCl2, 120 mM NaCl, 5 mM KCl, pH=7.2 (25° C.)+0.1% BSA+2 mM CaCl2)) to give an OAG concentration of 0.2 mM/2% DMSO. The final concentration of OAG added to the cells is 50 μM/0.5% DMSO. A volume of 12.5 μL of OAG solution was added, and activation of TRPC6 channel was measured using the FLIPR tetra system assaying the change in intracellular calcium level as an index. The 180 seconds imaging frame was defined as the background signal, and the subtraction of the background signal from the raw data was used as the fluorescence peak signal. Each fluorescence peak signal is standardized using an OAG-induced signal and buffer-induced signal as 100% and 0%, respectively. The inhibition rate obtained by plotting the peak signal after the addition of the compounds of each level was analyzed by a four-parameter logistic regression to quantify the inhibition rate in the logarithm of the inverse of the effective concentration which gives a 50% inhibition rate (pIC50). The intensity was expressed by the above-mentioned symbols (+, ++, +++).

Compared with `Cn1nc(C2CC2)cc1Oc1cc(Cl)cnc1-c1ccc([C@H](F)CN)cn1` [compound 1371, (2S)-2-[6-[5-chloro-3-(5-cyclopropyl-2-methylpyrazol-3-yl)oxypyridin-2-yl]pyridin-3-yl]-2-fluoroethanamine], `Cn1nc(-c2ccccn2)cc1Oc1cc(Cl)cnc1-c1ccc([C@@H](F)CN)cn1` [compound 1353, (2R)-2-[6-[5-chloro-3-(2-methyl-5-pyridin-2-ylpyrazol-3-yl)oxypyridin-2-yl]pyridin-3-yl]-2-fluoroethanamme] is higher in IC50: under 10 nM for the first, 10 to 1000 nM for the second.

First: Cn1nc(C2CCOCC2)cc1Oc1cc(Cl)ccc1-c1ncc([C@@H](O)CN)cn1 [compound 1389, (1R)-2-amino-1-[2-[4-chloro-2-[2-methyl-5-(oxan-4-yl)pyrazol-3-yl]oxyphenyl]pyrimidin-5-yl]ethanol]
Second: Cn1nc(C2CCOCC2)cc1Oc1cc(Cl)ccc1-c1ccc([C@@H](F)CN)cn1 [compound 1387, (2R)-2-[6-[4-chloro-2-[2-methyl-5-(oxan-4-yl)pyrazol-3-yl]oxyphenyl]pyridin-3-yl]-2-fluoroethanamine]
The IC50 of the first is higher: 10 to 1000 nM for the first, under 10 nM for the second.

`Cn1nc(C2CC2)cc1Oc1cc(C#N)ccc1-c1ncc([C@H](F)CN)cn1` [compound 1367, 4-[5-[(1S)-2-amino-1-fluoroethyl]pyrimidin-2-yl]-3-(5-cyclopropyl-2-methylpyrazol-3-yl)oxybenzonitrile] and `Cn1nc(C2CC2)cc1Oc1cc(C#N)ccc1-c1ncc([C@@H](F)CN)cn1` [compound 1366, 4-[5-[(1R)-2-amino-1-fluoroethyl]pyrimidin-2-yl]-3-(5-cyclopropyl-2-methylpyrazol-3-yl)oxybenzonitrile] cannot be ordered by IC50: under 10 nM for the first, under 10 nM for the second.

First: Cn1nc([C@H]2CCCOC2)cc1Oc1cc(C#N)ccc1-c1ccc(CN)cn1 [compound 1330, 4-[5-(aminomethyl)pyridin-2-yl]-3-[2-methyl-5-[(3R)-oxan-3-yl]pyrazol-3-yl]oxybenzonitrile]
Second: Cn1nc([C@@H]2CCOC2)cc1Oc1cc(C#N)ccc1-c1ncc(CN)cn1 [compound 1308, 4-[5-(aminomethyl)pyrimidin-2-yl]-3-[2-methyl-5-[(3S)-oxolan-3-yl]pyrazol-3-yl]oxybenzonitrile]
The IC50 of the first is lower: under 10 nM for the first, 10 to 1000 nM for the second.

First: Cc1cc(Oc2cc(Cl)cnc2-c2ncc(CCN)cn2)cc(N2CCOCC2)n1 [compound 1385, 2-[2-[5-chloro-3-(2-methyl-6-morpholin-4-ylpyridin-4-yl)oxypyridin-2-yl]pyrimidin-5-yl]ethanamine]
Second: Cc1cc(Oc2cc(Cl)ccc2-c2ncc([C@@H](O)CN)cn2)cc(N2CCOCC2)n1 [compound 1350, (1R)-2-amino-1-[2-[4-chloro-2-(2-methyl-6-morpholin-4-ylpyridin-4-yl)oxyphenyl]pyrimidin-5-yl]ethanol]
The IC50 of the first is higher: 10 to 1000 nM for the first, under 10 nM for the second.

First: Cc1cc(Oc2cc(Cl)ccc2-c2ccc([C@@H](O)CN)cn2)cc(N2CCOCC2)n1 [compound 1395, (1R)-2-amino-1-[6-[4-chloro-2-(2-methyl-6-morpholin-4-ylpyridin-4-yl)oxyphenyl]pyridin-3-yl]ethanol]
Second: Cc1cc(Oc2cc(Cl)ccc2-c2ccc(CN)cn2)cc(N2CCOCC2)n1 [compound 1321, [6-[4-chloro-2-(2-methyl-6-morpholin-4-ylpyridin-4-yl)oxyphenyl]pyridin-3-yl]methanamine]
The IC50 of the first is lower: under 10 nM for the first, 10 to 1000 nM for the second.

Going from `Cc1cc(Oc2nc(Cl)ccc2-c2ccc(CCN)cc2)cc(N2CCOCC2)n1` [compound 1329, 2-[4-[6-chloro-2-(2-methyl-6-morpholin-4-ylpyridin-4-yl)oxypyridin-3-yl]phenyl]ethanamine] to `Cc1cc(Oc2cc(Cl)ccc2-c2ncc([C@H](F)CN)cn2)cc(N2CCOCC2)n1` [compound 1337, (2S)-2-[2-[4-chloro-2-(2-methyl-6-morpholin-4-ylpyridin-4-yl)oxyphenyl]pyrimidin-5-yl]-2-fluoroethanamine], the IC50 falls from over 1000 nM to under 10 nM.

First: Cc1cc(Oc2cc(C#N)ccc2-c2ccc3c(n2)CNC3)cc(N2CCOCC2)n1 [compound 1297, 4-(6,7-dihydro-5H-pyrrolo[3,4-b]pyridin-2-yl)-3-(2-methyl-6-morpholin-4-ylpyridin-4-yl)oxybenzonitrile]
Second: Cc1cc(Oc2cc(C#N)ccc2-c2ccc([C@H](F)CN)cn2)cc(N2CCOCC2)n1 [compound 1300, 4-[5-[(1S)-2-amino-1-fluoroethyl]pyridin-2-yl]-3-(2-methyl-6-morpholin-4-ylpyridin-4-yl)oxybenzonitrile]
The IC50 of the first is higher: 10 to 1000 nM for the first, under 10 nM for the second.

First: Cn1nc(-c2ccccn2)cc1Oc1cc(Cl)ccc1-c1ncc([C@@H](O)CN)cn1 [compound 1357, (1R)-2-amino-1-[2-[4-chloro-2-(2-methyl-5-pyridin-2-ylpyrazol-3-yl)oxyphenyl]pyrimidin-5-yl]ethanol]
Second: Cn1nc(-c2ccccn2)cc1Oc1cc(Cl)ccc1-c1ncc([C@H](O)CN)cn1 [compound 1358, (1S)-2-amino-1-[2-[4-chloro-2-(2-methyl-5-pyridin-2-ylpyrazol-3-yl)oxyphenyl]pyrimidin-5-yl]ethanol]
The IC50 of the first is lower: under 10 nM for the first, 10 to 1000 nM for the second.

`Cn1nc(-c2ccccn2)cc1Oc1cc(C#N)cnc1-c1ccc(CCN)cc1` [compound 1331, 6-[4-(2-aminoethyl)phenyl]-5-(2-methyl-5-pyridin-2-ylpyrazol-3-yl)oxypyridine-3-carbonitrile] and `Cn1nc(-c2ccccn2)cc1Oc1cc(Cl)ncc1-c1ccc(CCN)cc1` [compound 1332, 2-[4-[6-chloro-4-(2-methyl-5-pyridin-2-ylpyrazol-3-yl)oxypyridin-3-yl]phenyl]ethanamine] cannot be ordered by IC50: over 1000 nM for the first, over 1000 nM for the second.

First: Cc1cc(Oc2cc(C#N)ccc2-c2ncc(C(F)(F)CN)cn2)cc(N2CCOCC2)n1 [compound 1319, 4-[5-(2-amino-1,1-difluoroethyl)pyrimidin-2-yl]-3-(2-methyl-6-morpholin-4-ylpyridin-4-yl)oxybenzonitrile]
Second: Cn1nc(C2CCOCC2)cc1Oc1cc(C#N)ccc1-c1ccc([C@H](F)CN)cn1 [compound 1369, 4-[5-[(1S)-2-amino-1-fluoroethyl]pyridin-2-yl]-3-[2-methyl-5-(oxan-4-yl)pyrazol-3-yl]oxybenzonitrile]
The IC50 of the first is higher: 10 to 1000 nM for the first, under 10 nM for the second.

Compared with `Cn1nc(C2CC2)cc1Oc1cc(F)ccc1-c1ncc([C@@H](F)CN)cn1` [compound 1382, (2R)-2-[2-[2-(5-cyclopropyl-2-methylpyrazol-3-yl)oxy-4-fluorophenyl]pyrimidin-5-yl]-2-fluoroethanamine], `Cn1nc(-c2ccccn2)cc1Oc1cc(F)ccc1-c1ncc([C@H](F)CN)cn1` [compound 1335, (2S)-2-fluoro-2-[2-[4-fluoro-2-(2-methyl-5-pyridin-2-ylpyrazol-3-yl)oxyphenyl]pyrimidin-5-yl]ethanamine] is lower in IC50: 10 to 1000 nM for the first, under 10 nM for the second.

Source: patent US20230167073A1 (Teijin Pharma Limited, priority 2020, published 2023)
